Drawing on article PMC8624998, “Synthesis and Antiproliferative Evaluation of 3-Chloroazetidin-2-ones with Antimitotic Activity: Heterocyclic Bridged Analogues of Combretastatin A-4” (Pharmaceuticals, 2021), this text covers IC50 and GI50 for five compounds.

Like-named read-outs stand apart in the source and are kept apart here.

Format in all cases: cell-based
For one test, the system named is HL-60 cells. Nature of the test: Cell viability assay, antiproliferative activity. As for the experimental part: (§1) […]. The corresponding values for 10e in these cell lines were 161 nM (HL-60), 55 nM (SW480) and 135 nM (HT-29). […] […]. SW480 colon cells expressed low levels of the UDP-glucuronosyltransferase (UGT) protein compared to expression levels in HT-29 cells. […] […].
(§2) The human breast carcinoma cell line MCF-7 was purchased from the European Collection of Animal Cell Cultures (ECACC). Triple negative breast cancer Hs578T cells and its invasive variant Hs578Ts(i)8 were a kind gift from Dr. Susan McDonnell, School of Chemical and Bioprocess Engineering, University College Dublin. U266 cells were a gift from Dr. Tony McElligott, School of Medicine, St James’s Hospital, Trinity College Dublin. HT-29 cells were purchased from the European Collection of Cell Cultures (originating from a human adenocarcinoma of the colon). The human breast carcinoma cell line MDA-MB-231 and the HL-60 cells derived from a patient with acute myeloid leukaemia were both obtained from ECACC (Salisbury, UK). The SW-480 cells were a kind gift from Dr. Brian Flood, School of Biochemistry and Immunology, Trinity College Dublin. HEK-293T (normal epithelial embryonic kidney cells) were cultured in Dulbecco’s Modified Eagle’s Medium (DMEM) with GlutaMAXTM-I in the absence of non-essential amino acids. Human breast cancer MCF-7 cells and multiple myeloma U266 cells were cultured in Minimum Essential Media (MEM) with GlutaMAX™-I, supplemented with 1% (v/v) non-essential amino acids, 10% 2(v/v) foetal bovine serum (FBS) and 1% (v/v) penicillin/streptomycin 5000 U/mL. MDA-MB-231 cells were maintained in DMEM supplemented with 10% (v/v) foetal bovine serum, 2 mM L-glutamine and 100 μg/mL penicillin/streptomycin (complete medium). Colon cancer HT-29 and SW-480 and triple negative breast cancer Hs578T and its invasive variant Hs578T8i were cultured in DMEM with GlutaMAX™-I, with the same supplement in the absence of non-essential amino acids. Leukaemia HL-60 cancer cells were cultured in Roswell Park Memorial Institute Media (RPMI-1640) with GlutaMAX™-I, supplemented with 10% FCS media, and 100 μg/mL penicillin/streptomycin as above. Cell numbers were monitored using a haemocytometer. Cell culture flasks were incubated in a humidified incubator (5% CO2/95% air) at 37 °C. All cell lines were sub-cultured three times per week with trypsinisation using TrypLE Express (1X) required for adherent cell lines.
(§3) . All stock solutions and serial dilution in ethanol/DMSO were stored at -20 °C. All cells were seeded at a density of 2.5 × 10^4 cells/mL in a 96-well plate (200 μL per well). The cells were incubated in a […] atmosphere at 37 °C for 24 h, then treated with test compound (2 μL of stock solutions per 200-microlitre well) in ethanol to obtain a concentration range of 1 nM–200 μM for the study. The plates were then re-incubated for a further 72 h. Control wells contained an equivalent volume of the vehicle ethanol or DMSO (1% v/v). MTT cell viability assay: The culture medium was removed, and the cells were washed with phosphate buffered saline (PBS, […]). MTT (dissolved in PBS, […]) was added to obtain a final concentration of MTT (1 mg/mL). Cells were incubated at 37 °C for 3 h in the dark. Solubilisation was commenced by the addition of DMSO ([…]) and the cells were maintained at 20 °C in the dark for 20 min before reading the absorbance to ensure complete colour diffusion. The absorbance value of control cells (no added compound) was set to 100% cell viability and absorbance versus cell density per well was determined to assess cell viability using Graph-Pad Prism software. AlamarBlue cell viability assay: Cells were seeded in 96-well plates (e.g., MCF-7, 5 × 10^3 cells/well) and (HT-29 cells, 1 × 10^3 cells/well) and (HL-60 cells, 1 × 10^4 cells/well) with a total volume per well of 200 µL. After 24 h, cells were treated in triplicate with serial dilutions of CA-4 or β-lactam analogues (0.001–100 μM), medium alone or vehicle (1% ethanol (v/v)). […]

In a further test the test system is HT-29 cells. The test is described as follows: Cell viability assay, antiproliferative activity. The procedure:
as §1, §2, §3

Another test concerns A549/ATCC. The test is described as follows: NCI-60 5 dose screen, NSC Lung Cancer. The conditions noted are these: Homo sapiens.
For another test, the system named is NCI-H552. Nature of the test: NCI-60 5 dose screen, NSC Lung Cancer. The conditions noted are these: Homo sapiens.
The next test has as its system COLO205. The test is described as follows: NCI-60 5 dose screen, Colon Cancer. The conditions noted are these: Homo sapiens, COLO 205.
The test system of the next test is HCT-116. Nature of the test: NCI-60 5 dose screen, Colon Cancer. The conditions noted are these: Homo sapiens.
The test system of a further test is HCT-15. Nature of the test: NCI-60 5 dose screen, Colon Cancer. The conditions noted are these: Homo sapiens.
The next test concerns SW-620. Nature of the test: NCI-60 5 dose screen, Colon Cancer. The conditions noted are these: Homo sapiens.
The next test concerns SNB-75. The test is described as follows: NCI-60 5 dose screen, CNS Cancer. The conditions noted are these: Homo sapiens.
Another test concerns MALME-3M. The test is described as follows: NCI-60 5 dose screen, Melanoma. The conditions noted are these: Homo sapiens.
The subject of the next test is SK-MEL-2. Nature of the test: NCI-60 5 dose screen, Melanoma. The conditions noted are these: Homo sapiens.
Another test deals with UACC-62. The test is described as follows: NCI-60 5 dose screen, Melanoma. The conditions noted are these: Homo sapiens.
A further test has as its system OVCAR-5. Nature of the test: NCI-60 5 dose screen, Ovarian Cancer. The conditions noted are these: Homo sapiens.
The subject of a further test is A498. Nature of the test: NCI-60 5 dose screen, Renal Cancer. The conditions noted are these: Homo sapiens.
A further test relates to SN12C. The test is described as follows: NCI-60 5 dose screen, Renal Cancer. The conditions noted are these: Homo sapiens.
A further test relates to TK-10. Nature of the test: NCI-60 5 dose screen, Renal Cancer. The conditions noted are these: Homo sapiens.
A further test relates to MCF-7. Nature of the test: NCI-60 5 dose screen, Breast Cancer. The conditions noted are these: Homo sapiens, MCF7.
For another test, the system named is HS 578T. Nature of the test: NCI-60 5 dose screen, Breast Cancer. The conditions noted are these: Homo sapiens.
[1] abbreviates: Homo sapiens, HL-60, 72 h; read-out: HL-60 IC50.
[2] abbreviates: MCF-7, NCI screen, read-out: GI50 in MCF-7 cells.
Where [3] appears, read: Homo sapiens, HT-29, 72 h; read-out: HT-29 IC50.

Consider `COc1ccc(/C=C\c2cc(OC)c(OC)c(OC)c2)cc1O` [CA-4, Combretastatin A-4], for which the IC50 (commonly the midpoint of a concentration-inhibition curve) turned out to be 0.0019 ± 0.0005 µM with HL-60 cells (setting [1]); 0.002 µM with HL-60 cells (Homo sapiens, HL-60; read-out: HL-60 IC50); 4.17 µM in the test with HT-29 cells (Homo sapiens, HT-29; read-out: HT-29 IC50).
In the case of `CCSc1ccc(C2C(Br)C(=O)N2c2cc(OC)c(OC)c(OC)c2)cc1` (centres unmarked) [Compound 16d, 3-Bromo-4-(4-(ethylthio)phenyl)-1-(3,4,5-trimethoxyphenyl)azetidin-2-one], the GI50 – broadly, the concentration at which growth is held to half of that of the control – in the test on A549/ATCC (A549/ATCC, read-out: GI50) was 0.598 µM; with NCI-H552 (NCI-H552, read-out: GI50) it was 0.158 µM; with COLO205 (COLO205, read-out: GI50), 0.23 µM; in the test on HCT-116 (read-out: GI50), 0.222 µM; with HCT-15 (read-out: GI50), 0.21 µM; in the test on SW-620 (read-out: GI50), 0.236 µM. Besides, the GI50 with SNB-75 (read-out: GI50) was determined as 0.509 µM; in the test with MALME-3M (read-out: GI50), 11.3 µM; with SK-MEL-2 (read-out: GI50), 0.484 µM; in the test with UACC-62 (read-out: GI50), 0.0972 µM; in the test on OVCAR-5 (read-out: GI50), 0.431 µM; with A498 (read-out: GI50), 0.103 µM. For the same compound, the GI50 was 0.925 µM in the test on SN12C (read-out: GI50); 14.3 µM in the test on TK-10 (read-out: GI50); 0.044 µM in the test on MCF-7 (setting [2]); 0.0447 µM in the test with MCF-7 (MCF-7, read-out: GI50); 0.229 µM in the test on HS 578T (HS 578T, read-out: GI50).
In the case of `COc1ccc(C2N(c3cc(OC)c(OC)c(OC)c3)C(=O)C2(Cl)Cl)cc1O` (centres unmarked) [Compound 11n, 3,3-Dichloro-4-(3-hydroxy-4-methoxyphenyl)-1-(3,4,5-trimethoxyphenyl)azetidin-2-one], the IC50 in the test with HL-60 cells (Homo sapiens, HL-60, 72 h, read-out: HL-60 IC50) was 0.016 ± 0.005 µM; in the test on HT-29 cells (Homo sapiens, HT-29, 72 h, read-out: HT-29 IC50), 0.941 ± 0.06 µM. Moreover, the GI50 turned out to be 0.0382 µM in the test on A549/ATCC (A549); 0.0164 µM with NCI-H552; 2.91 µM with COLO205; 0.0328 µM with HCT-116; 0.0383 µM with HCT-15; 0.0376 µM in the test on SW-620. Besides, the GI50 stood at 0.0199 µM in the test with SNB-75; 0.0685 µM in the test with MALME-3M; 0.0316 µM in the test with SK-MEL-2; 0.0422 µM with UACC-62; 0.312 µM with OVCAR-5; 0.0226 µM in the test on A498. Moreover, the GI50 is 0.0446 µM in the test with SN12C, 0.126 µM with TK-10, 0.031 µM with MCF-7 and 0.0428 µM in the test on HS 578T (Hs-578T).
Consider `COc1ccc([C@H]2[C@H](Cl)C(=O)N2c2cc(OC)c(OC)c(OC)c2)cc1` (relative stereo) [Compound 10e trans, Trans-3-chloro-1-(3,4,5-trimethoxyphenyl)-4-(4-methoxyphenyl) azetidin-2-one], for which the IC50 with HL-60 cells (setting [1]) is 0.161 ± 0.02 µM; in the test with HT-29 cells (setting [3]) it was 0.135 ± 0.06 µM. Besides, the GI50 turned out to be 0.0785 µM with A549/ATCC (A549/ATCC, read-out: GI50); 0.0207 µM in the test on NCI-H552 (NCI-H552, read-out: GI50); 0.0492 µM in the test with COLO205 (COLO205, read-out: GI50); 0.0397 µM in the test with HCT-116 (read-out: GI50); 0.0504 µM in the test with HCT-15 (read-out: GI50); 0.0432 µM in the test with SW-620 (read-out: GI50). Further, the GI50 in the test on SNB-75 (read-out: GI50) stood at 0.0382 µM; in the test on MALME-3M (read-out: GI50), 0.0884 µM; in the test on SK-MEL-2 (read-out: GI50), 0.045 µM; in the test on UACC-62 (read-out: GI50), 0.0518 µM; with OVCAR-5 (read-out: GI50) it was 0.0806 µM; with A498 (read-out: GI50) it was 0.0271 µM. Moreover, the GI50 came to 0.0837 µM in the test on SN12C (read-out: GI50); 0.0922 µM in the test with TK-10 (read-out: GI50); 0.034 µM in the test on MCF-7 (setting [2]); 0.0343 µM in the test on MCF-7 (MCF-7, read-out: GI50); 0.0553 µM in the test on HS 578T (HS 578T, read-out: GI50).
On to `COc1ccc(C2C(Cl)C(=O)N2c2cc(OC)c(OC)c(OC)c2)cc1O` (centres unmarked) [Compound 10n, 3-Chloro-4-(3-hydroxy-4-methoxy-phenyl)-1-(3,4,5-trimethoxyphenyl)azetidin-2-one], for which the IC50 came out at 0.01 ± 0.008 µM in the test with HL-60 cells (setting [1]) and 0.631 ± 0.03 µM in the test with HT-29 cells (setting [3]).
